Key:
trypsin [1] = test: EnzChek trypsin inhibition assay of talc mixed with divalent cation salts (Example 3); format: biochemical; conditions: for % synergistic activity relative to hypothetic additive value: Table 3, all materials 0.1% (g/mL)
Procedure: The objective of the following experiment was to determine whether and to what extent adding a divalent cation to talc inhibited trypsin activity in an in vitro assay. The inhibition of trypsin-induced cleavage of a fluorescent casein peptide was measured using the EnzChek™ protease assay kit, following manufacturer's instructions (EnzChek™ Protease Assay Kits Product Information, Revised; Molecular Probes, Eugene Oreg.). […] Trypsin working solution (Sigma, St. Louis, Mo., unit/mL) was prepared in digestion buffer provided in the assay kit. Stock solution of BODIPY FL casein (trypsin substrate, mg/mL) was prepared by adding 0.2 mL to the substrate vials (provided in kit), and the final substrate working solution (10 microgram/mL) was prepared by dilution in digestion buffer (pH 7.8). Following incubation of the trypsin, with or without the test materials, with the BODIPY fluorescent casein substrate, at room temperature for one hour, fluorescence was measured (excitation 485 nm/emission 530 nm) using a SpectraMax microtiter plate reader (Molecular Devices Corporation, Sunnyvale, Calif.) and Softmax Pro software (Molecular Devices Corporation). Each experiment was performed in three replicates.

trypsin [2] = test: EnzChek trypsin inhibition assay of zinc oxide/acid mixtures and zinc oxide formulations (Example 4); format: biochemical; conditions: Example 4 conclusions
Procedure: The objective of the following experiment was to determine whether and to what extent adding an acid to a formulation containing zinc oxide had on inhibition of trypsin activity in an in vitro assay. The inhibition of trypsin-induced cleavage of a fluorescent casein peptide was measured using the EnzChek™ protease assay kit, following manufacturer's instructions (EnzChek™ Protease Assay Kits Product Information, Revised; Molecular Probes, Eugene Oreg.). Briefly, mixtures of zinc oxide and acid at different concentrations were prepared in 1×PBS (pH 7.4) and their pH was recorded as listed in the Tables 5-8. Trypsin working solution (Sigma, St. Louis, Mo., unit/mL) was prepared in digestion buffer provided in the assay kit. Stock solution of BODIPY FL casein (trypsin substrate, mg/mL) was prepared by adding 0.2 mL to the substrate vials (provided in kit), and the final substrate working solution (10 microgram/mL) was prepared by dilution in digestion buffer (pH 7.8). Following incubation of the trypsin, with or without the test materials (50 μl), with the BODIPY fluorescent casein substrate, at room temperature for one hour, fluorescence was measured (excitation 485 nm/emission 530 nm) using a SpectraMax microtiter plate reader (Molecular Devices Corporation, Sunnyvale, Calif.) and Softmax Pro software (Molecular Devices Corporation). Each experiment was performed in three replicates.

Row | SMILES | % synergistic activity relative to hypothetic additive value (trypsin [1]) | other results
1 | CC(=O)[O-].CC(=O)[O-].O.[Ca+2] [Calcium acetate monohydrate] | 3.10% | –
2 | [Ca+2].[Cl-].[Cl-] [Calcium chloride] | −0.26% | –
3 | [Cl-].[Cl-].[Mg+2] [Magnesium chloride] | – | trypsin inhibitory activity, result in words (trypsin [1]; Example 3, Table 4 conclusions): moderate to low levels
4 | [O]=[Zn] [ZnO, zinc oxide] | – | trypsin inhibitory activity, result in words (trypsin [2]): minimal protease activity
